Here are results for 24 molecules from patent US20250163022A1, “PARP1 INHIBITORS” (Synnovation Therapeutics, Inc., priority 2021, published 2025).

This assay addresses T1, PARP1 (Homo sapiens, UniProt P09874).
T1 construct: HeLa cells (wide-type with PARP1 gene) were purchased from ATCC; host or cells: HeLa (wild type)
The assay can be described thus: In-Cell Western measurement of PARylation in PARP1 WT and knockout cells. As to conditions: HeLa cells (wide-type with PARP1 gene); hydrogen peroxide-induced PARylation; compounds 30 min, then 10 mM hydrogen peroxide 15 min; read-out: HeLa_WT_IC50. Format: cell-based. From the text:
The purpose of this cell-based assay is to measure the potency and selectivity of synthesized PARP inhibitors in suppressing hydrogen peroxide-induced PARylation in cells with and without PARP1 expression. Several cell lines were used in this assay. The human PARP1 knockout HEK-293T cell line (#ab266598) was purchased from Abcam, and its corresponding wide-type control is the human wild-type HEK-293T cell line (#ab255449). The HAP1 isogenic cell lines with and without the PARP1 gene (#HZGHC003943c006) were purchased from Horizon Discovery. HeLa cells (wide-type with PARP1 gene) were purchased from ATCC. Cells were cultured using complete medium containing 10% fetal bovine serum. One day before the assay, cells were seeded in 96-well plates at the density of 20,000 cells per well in 100 uL complete medium. Compounds were dissolved using DMSO and diluted to the working concentrations using complete medium. Cells were pre-treated with compounds for 30 min and then stimulated with 10 mM hydrogen peroxide for 15 min. After stimulation, cells were immediately fixed using ice-cold methanol for 20 min. After fixation, cells were washed using 1×PBST buffer for 3 times, 5 min each time, to eliminate residual methanol. Cells were blocked for 2 h at room temperature in blocking buffer (LI-COR Biosciences, #927-70001). Primary antibody was diluted in diluent buffer (LI-COR Biosciences, #927-75001, 1:200) at 50 uL per well. Cells were incubated with the primary antibody at 4° C. for 18 h. The wells were then washed using 1×PBST for 3 times, 5 min each time. IRDye® 680RD Goat anti-Mouse IgG (H+L) secondary antibody was diluted at 1/2000 using the diluent buffer and added at 100 μL per well. Secondary antibody incubation was for 1 h at room temperature. Cells were then washed using 1×PBST for 3 times, 5 min each time. The signal was detected and analyzed using LI-COR Odyssey DLx Imaging system. Data were collected and further processed using GraphPad Prism for IC50 estimation.

T1 sequence (P09874 whole entry): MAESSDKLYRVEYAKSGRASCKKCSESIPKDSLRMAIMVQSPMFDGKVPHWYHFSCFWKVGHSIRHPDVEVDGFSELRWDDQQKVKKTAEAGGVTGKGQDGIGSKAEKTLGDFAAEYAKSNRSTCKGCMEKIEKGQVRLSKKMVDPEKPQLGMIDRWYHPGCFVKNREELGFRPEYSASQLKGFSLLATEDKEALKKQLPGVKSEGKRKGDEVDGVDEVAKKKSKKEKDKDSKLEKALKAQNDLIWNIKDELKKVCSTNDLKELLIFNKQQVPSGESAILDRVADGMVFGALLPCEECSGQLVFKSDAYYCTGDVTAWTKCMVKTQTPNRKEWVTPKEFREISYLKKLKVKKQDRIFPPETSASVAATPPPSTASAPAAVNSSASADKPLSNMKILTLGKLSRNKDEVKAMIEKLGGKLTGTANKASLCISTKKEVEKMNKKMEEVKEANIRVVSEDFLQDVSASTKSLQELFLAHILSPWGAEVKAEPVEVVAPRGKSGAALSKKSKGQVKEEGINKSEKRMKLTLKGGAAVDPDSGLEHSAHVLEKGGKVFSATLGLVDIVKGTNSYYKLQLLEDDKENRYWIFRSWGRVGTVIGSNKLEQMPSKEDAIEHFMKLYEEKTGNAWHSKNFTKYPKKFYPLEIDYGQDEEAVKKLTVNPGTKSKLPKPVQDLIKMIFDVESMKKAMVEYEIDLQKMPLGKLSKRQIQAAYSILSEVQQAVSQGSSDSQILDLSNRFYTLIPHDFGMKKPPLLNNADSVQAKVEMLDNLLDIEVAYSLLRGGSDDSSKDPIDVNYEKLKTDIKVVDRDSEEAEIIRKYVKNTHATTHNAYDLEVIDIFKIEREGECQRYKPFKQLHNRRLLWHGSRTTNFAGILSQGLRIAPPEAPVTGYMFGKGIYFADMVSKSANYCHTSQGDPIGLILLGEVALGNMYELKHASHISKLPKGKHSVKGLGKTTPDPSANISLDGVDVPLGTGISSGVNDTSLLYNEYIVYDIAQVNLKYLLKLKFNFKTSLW

Take `CCN1C(=O)Nc2c(F)c(CN3CCN(c4ccc(C(=O)N[C@@H]5CCN(C)C5)nc4C)CC3)cc3ncnc1c23` [Compound I-77, (R)-5-(4-((3-ethyl-9-fluoro-2-oxo-2,3-dihydro-1H-pyrimido[4,5,6-de]quinazolin-8-yl)methyl)piperazin-1-yl)-6-methyl-N-(1-methylpyrrolidin-3-yl)picolinamide]: the IC50 was 10 to 100 nM. `CCN1C(=O)Nc2cc(CN3CCN(c4ccc(C(=O)NC)nc4C)CC3)cc3ncnc1c23` [Compound I-17, 5-(4-((3-Ethyl-2-oxo-2,3-dihydro-1H-pyrimido[4,5,6-de]quinazolin-8-yl)methyl)piperazin-1-yl)-N,6-dimethylpicolinamide]: the IC50 was at most 10 nM. Consider `CNC(=O)c1ccc(N2CCN(Cc3cnc4c5c(c(=O)[nH]c4c3)CCC5)CC2)c(C)n1` [Compound I-20, N,6-dimethyl-5-(4-((6-oxo-6,7,8,9-tetrahydro-5H-cyclopenta[c][1,5]naphthyridin-3-yl)methyl)piperazin-1-yl)picolinamide], for which the IC50 was at most 10 nM. Take `[2H]C([2H])([2H])NC(=O)c1ccc(N2CCN(Cc3cc(F)c4c(=O)n(CC)c(=O)[nH]c4c3)CC2)c(C([2H])([2H])[2H])n1` [Compound I-36, 5-(4-((3-Ethyl-5-fluoro-2,4-dioxo-1,2,3,4-tetrahydroquinazolin-7-yl)methyl)piperazin-1-yl)-N,6-bis(methyl-d3)picolinamide]: the IC50 was at most 10 nM. `CNC(=O)c1ccc(N2CCN(Cc3cnc4c5c(c(=O)[nH]c4c3)CCC5)CC2)c(C(F)(F)F)n1` [Compound I-23, N-methyl-5-(4-((6-oxo-6,7,8,9-tetrahydro-5H-cyclopenta[c][1,5]naphthyridin-3-yl)methyl)piperazin-1-yl)-6-(trifluoromethyl)picolinamide]: the IC50 is at most 10 nM. Regarding `CCN1C(=O)Nc2c(F)c(CN3CCN(c4ccc(C(=O)NC5(COC)CC5)nc4C)CC3)cc3ncnc1c23` [Compound I-66, 5-(4-((3-ethyl-9-fluoro-2-oxo-2,3-dihydro-1H-pyrimido[4,5,6-de]quinazolin-8-yl)methyl)piperazin-1-yl)-N-(1-(methoxymethyl)cyclopropyl)-6-methylpicolinamide], the IC50 was at most 10 nM.

On to `CNC(=O)c1ccc(N2CCN(Cc3ccc4c(c3)NC(=O)C3CC43)CC2)cn1` (stereo not drawn) [Compound I-3, N-Methyl-5-(4-((2-oxo-1a,2,3,7b-tetrahydro-1H-cyclopropa[c]quinolin-5-yl)methyl)piperazin-1-yl)picolinamide], for which the IC50 was in the range of 100 to 500 nM. Under `CCn1c(=O)[nH]c2cc(CN3CCN(c4ccc(C(=O)NC)nc4C)CC3)cc(Cl)c2c1=O` [Compound I-32, 5-(4-((5-chloro-3-ethyl-2,4-dioxo-1,2,3,4-tetrahydroquinazolin-7-yl)methyl)piperazin-1-yl)-N,6-dimethylpicolinamide] stands at most 10 nM. Take `CCN1C(=O)Nc2c(F)c(CN3CCN(c4ccc(C(=O)NC5(CC#N)CC5)c(F)c4F)CC3)cc3ncnc1c23` [Compound I-95, N-(1-(cyanomethyl)cyclopropyl)-4-(4-((3-ethyl-9-fluoro-2-oxo-2,3-dihydro-1H-pyrimido[4,5,6-de]quinazolin-8-yl)methyl)piperazin-1-yl)-2,3-difluorobenzamide]: the IC50 was 10 to 100 nM. Then `CCN1C(=O)Nc2c(F)c(CN3CCN(c4ccc(C(=O)N[C@@H]5[C@@H]6COC[C@@H]65)nc4C)CC3)cc3ncnc1c23` [Compound I-69, N-((1R,5S,6s)-3-oxabicyclo[3.1.0]hexan-6-yl)-5-(4-((3-ethyl-9-fluoro-2-oxo-2,3-dihydro-1H-pyrimido[4,5,6-de]quinazolin-8-yl)methyl)piperazin-1-yl)-6-methylpicolinamide], with 10 to 100 nM.

With `CCc1cc2sc(CN3CCN(c4ccc(C(=O)NC)nc4)CC3)cc2[nH]c1=O` [Compound I-13, 5-(4-((6-Ethyl-5-oxo-4,5-dihydrothieno[3,2-b]pyridin-2-yl)methyl)piperazin-1-yl)-N-methylpicolinamide], the IC50 is at most 10 nM.

Consider `CNC(=O)c1ccc(N2CCN(Cc3ncc4c5c(c(=O)[nH]c4c3F)CCC5)CC2)c(C)n1` [Compound I-25, 5-(4-((4-Fluoro-6-oxo-6,7,8,9-tetrahydro-5H-cyclopenta[c][1,6]naphthyridin-3-yl)methyl)piperazin-1-yl)-N,6-dimethylpicolinamide], for which the IC50 is at most 10 nM. Then `CNC(=O)c1ccc(N2CCN(Cc3cc(C4CC4)c4c(=O)n(C)c(=O)[nH]c4c3F)CC2)c(C)n1` [Compound I-49, 5-(4-((5-Cyclopropyl-8-fluoro-3-methyl-2,4-dioxo-1,2,3,4-tetrahydroquinazolin-7-yl)methyl)piperazin-1-yl)-N,6-dimethylpicolinamide], with at most 10 nM; and `CNC(=O)c1ccc(N2CCN(Cc3ncc4c5c(c(=O)[nH]c4c3F)CCC5)CC2)c(F)n1` [Compound I-27, 6-Fluoro-5-(4-((4-fluoro-6-oxo-6,7,8,9-tetrahydro-5H-cyclopenta[c][1,6]naphthyridin-3-yl)methyl)piperazin-1-yl)-N-methylpicolinamide], with at most 10 nM. Then `CNC(=O)c1ccc(N2CCN(Cc3cc4[nH]c(=O)c5c(c4cn3)CCC5)CC2)c(C)n1` [Compound I-30, N,6-dimethyl-5-(4-((6-oxo-6,7,8,9-tetrahydro-5H-cyclopenta[c][1,6]naphthyridin-3-yl)methyl)piperazin-1-yl)picolinamide], with at most 10 nM; and `CNC(=O)c1ccc(N2CCN(Cc3cnc4c5c(c(=O)[nH]c4c3)CCC5)CC2)c(F)n1` [Compound I-24, 6-Fluoro-N-methyl-5-(4-((6-oxo-6,7,8,9-tetrahydro-5H-cyclopenta[c][1,5]naphthyridin-3-yl)methyl)piperazin-1-yl)picolinamide], with at most 10 nM. As for `CCN1C(=O)Nc2c(F)c(CN3CCN(c4ccc(C(=O)NC)nc4C)CC3)cc3nc(OC)nc1c23` [Compound I-50, 5-(4-((3-Ethyl-9-fluoro-5-methoxy-2-oxo-2,3-dihydro-1H-pyrimido[4,5,6-de]quinazolin-8-yl)methyl)piperazin-1-yl)-N,6-dimethylpicolinamide], the IC50 was at most 10 nM.

For `CCN1C(=O)Nc2c(F)c(CN3CCN(c4ccc(C(=O)NC)nc4C)CC3)cc3ncnc1c23` [Compound I-35, 5-(4-((3-ethyl-9-fluoro-2-oxo-2,3-dihydro-1H-pyrimido[4,5,6-de]quinazolin-8-yl)methyl)piperazin-1-yl)-N,6-dimethylpicolinamide], the IC50 was at most 10 nM. Then `CCN1C(=O)Nc2c(F)c(CN3CCN(c4ccc(C(=O)NOCC5CC5)nc4C)CC3)cc3ncnc1c23` [Compound I-58, N-(cyclopropylmethoxy)-5-(4-((3-ethyl-9-fluoro-2-oxo-2,3-dihydro-1H-pyrimido[4,5,6-de]quinazolin-8-yl)methyl)piperazin-1-yl)-6-methylpicolinamide], with at most 10 nM; and `CCN1C(=O)Nc2c(F)c(CN3CCN(c4ccc(C(=O)N[C@H]5C[C@H](C#N)C5)nc4C)CC3)cc3ncnc1c23` [Compound I-60, N-((1r,3r)-3-cyanocyclobutyl)-5-(4-((3-ethyl-9-fluoro-2-oxo-2,3-dihydro-1H-pyrimido[4,5,6-de]quinazolin-8-yl)methyl)piperazin-1-yl)-6-methylpicolinamide], with at most 10 nM; and `CCN1C(=O)Nc2c(F)c(CN3CCN(c4ccc(C(=O)NC)nc4C)CC3)cc3nc(C)nc1c23` [Compound I-52, 5-(4-((3-Ethyl-9-fluoro-5-methyl-2-oxo-2,3-dihydro-1H-pyrimido[4,5,6-de]quinazolin-8-yl)methyl)piperazin-1-yl)-N,6-dimethylpicolinamide], with at most 10 nM. Regarding `CCN1C(=O)Nc2c(F)c(CN3CCN(c4ccc(C(=O)NC5(CC#N)CC5)cc4C)CC3)cc3ncnc1c23` [Compound I-93, N-(1-(cyanomethyl)cyclopropyl)-4-(4-((3-ethyl-9-fluoro-2-oxo-2,3-dihydro-1H-pyrimido[4,5,6-de]quinazolin-8-yl)methyl)piperazin-1-yl)-3-methylbenzamide], the IC50 is at most 10 nM. Then `CCN1Cc2ccc(CN3CCN(c4ccc(C(=O)NC)nc4)CC3)cc2NC1=O` [Compound I-2, 5-(4-((3-Ethyl-2-oxo-1,2,3,4-tetrahydroquinazolin-7-yl)methyl)piperazin-1-yl)-N-methylpicolinamide], with 10 to 100 nM. Under `CCN1C(=O)Nc2c(F)c(CN3CCN(c4ccc(C(=O)N[C@H]5[C@@H]6COC[C@@H]65)nc4C)CC3)cc3ncnc1c23` [Compound I-70, N-((1R,5S,6r)-3-oxabicyclo[3.1.0]hexan-6-yl)-5-(4-((3-ethyl-9-fluoro-2-oxo-2,3-dihydro-1H-pyrimido[4,5,6-de]quinazolin-8-yl)methyl)piperazin-1-yl)-6-methylpicolinamide] stands at most 10 nM.
